Molecules are shown by their SMILES. pIC50: −log10 of the molar value.

For this assay, the target named is T1, DDR2 wild-type (Homo sapiens, UniProt Q16832).
T1 construct: either as full-length or enzymatically active fragments; purchased ProQinase GmbH (Freiburg, Germany)
T1 sequence (Q16832 22-855): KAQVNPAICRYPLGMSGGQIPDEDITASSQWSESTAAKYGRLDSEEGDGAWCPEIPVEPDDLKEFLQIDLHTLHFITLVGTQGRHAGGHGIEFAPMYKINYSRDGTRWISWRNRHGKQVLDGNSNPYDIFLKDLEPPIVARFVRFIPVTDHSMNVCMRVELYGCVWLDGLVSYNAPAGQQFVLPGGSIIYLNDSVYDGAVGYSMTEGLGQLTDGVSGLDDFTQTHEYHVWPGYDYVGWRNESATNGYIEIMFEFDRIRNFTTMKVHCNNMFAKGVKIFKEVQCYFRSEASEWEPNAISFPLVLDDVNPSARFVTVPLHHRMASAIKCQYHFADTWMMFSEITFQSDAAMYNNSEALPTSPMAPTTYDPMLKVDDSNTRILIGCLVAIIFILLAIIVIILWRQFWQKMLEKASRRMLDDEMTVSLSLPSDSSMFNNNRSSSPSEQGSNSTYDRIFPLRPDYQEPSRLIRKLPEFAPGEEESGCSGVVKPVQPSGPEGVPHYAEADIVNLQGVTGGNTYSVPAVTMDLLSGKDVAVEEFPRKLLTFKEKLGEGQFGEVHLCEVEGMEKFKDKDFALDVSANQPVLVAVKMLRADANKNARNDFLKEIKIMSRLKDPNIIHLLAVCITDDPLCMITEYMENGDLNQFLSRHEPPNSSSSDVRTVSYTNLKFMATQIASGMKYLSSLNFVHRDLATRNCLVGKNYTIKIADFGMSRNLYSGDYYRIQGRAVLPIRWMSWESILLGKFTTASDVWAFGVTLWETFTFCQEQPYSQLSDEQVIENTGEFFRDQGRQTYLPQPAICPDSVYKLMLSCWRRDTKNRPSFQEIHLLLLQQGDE
As to the kind of experiment: Radiometric protein kinase assay (33PanQuinase Activity Assay), DDR2 wild-type. It is filed as biochemical. As to conditions: ATP 1.0 μM. On the procedure:
A proprietary radiometric protein kinase assay (33PanQuinase® Activity Assay) developed by ProQuinase GmbH (Freiburg, Germany) was used for measuring the kinase activity of selected protein kinases. All assays were performed in FlashPlates™ wells 96 Perkin Elmer (Boston, Mass., USA) in a reaction volume of 50 μl. The reaction mixture was obtained in 4 steps in the following order: • 1. 10 μl of a solution of non-radioactive ATP in water; • 2. 25 μl of assay buffer/[γ-^33P]-ATP mixture • 3. 5 μl of test sample in 10% DMSO • 4. 10 μl of enzyme/substrate mixture
All protein kinases provided by ProQinase were expressed in Sf9 insect cells or in E. coli as recombinant GST-fusion proteins or His-tagged proteins, either as full-length or enzymatically active fragments. […] Kinases from external vendors (CAR=Carna Biosciences Inc.; INV=Life Technologies (Invitrogen Corporation); MIL=Merck-Millipore (Millipore Corporation), were expressed, purified and quality-controlled by virtue of the vendors readings.
A stock solution of compound of formula (I) was diluted to 5×10-04M/100% DMSO. […] Incorporation of 33Pi (counting of “cpm”) was determined with a microplate scintillation counter (Microbeta, Wallac). […]
Based on each 10 corresponding residual activities, IC50 values were calculated using Prism 5.04 for Windows (Graphpad, San Diego, Calif.). […]

In turn, `CN1CCN(c2ccc(C(=O)Nc3n[nH]c4cc(-c5ccc(O)cc5)c(Cc5cc(F)cc(F)c5)cc34)c(NC3CCOCC3)c2)CC1` [Example 3, N-[5-[(3,5-difluorophenyl)methyl]-6-(4-hydroxyphenyl)-1H-indazol-3-yl]-4-(4-methylpiperazin-1-yl)-2-(tetrahydropyran-4-ylamino)benzamide] gave a pIC50 of 6.82.

What is called pIC50 is −log10 of the IC50, conventionally taken in molar units. A lower pIC50 goes with a high IC50.

The values above are taken from patent US10336707B2, “Heterocyclic derivatives modulating activity of certain protein kinases” (EUDENDRON S.R.L., priority 2014, dated 2019).
